# Assay results as given in US8524465B2, “Agonists of bitter taste receptors and uses thereof” (Deutsches Institut fuer Ernaehrungsforschung …, priority 2007, dated 2013).
# How the values were obtained:
# TAS2R14 = target: T1, TAS2R14 (Homo sapiens, UniProt Q9NYV8); test: FLIPR calcium imaging, HEK-293T Gα16gust44 cells expressing TAS2R14; format: cell-based; conditions: for molar range at which TAS2R14 responded to the bitter substance: calcium response, transfected HEK-293T Gα16gust44 cells, FLIPR
# T1 construct: expressed in transfected cells; host or cells: HEK-293T cells stably expressing the chimeric G-protein subunit Gα16gust44
# T1 sequence (Q9NYV8 1-317): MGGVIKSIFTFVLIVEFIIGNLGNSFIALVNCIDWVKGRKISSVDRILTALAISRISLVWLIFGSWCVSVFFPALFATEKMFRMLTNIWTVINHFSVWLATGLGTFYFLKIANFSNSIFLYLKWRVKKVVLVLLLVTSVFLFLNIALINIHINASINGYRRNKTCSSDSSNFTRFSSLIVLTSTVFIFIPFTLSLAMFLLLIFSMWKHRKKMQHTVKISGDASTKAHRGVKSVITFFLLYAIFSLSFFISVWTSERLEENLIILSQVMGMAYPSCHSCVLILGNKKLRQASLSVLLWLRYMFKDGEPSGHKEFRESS
# Experimental: (§1) Tastants (Sigma-Aldrich, Taufkirchen, Germany) were dissolved and administered in the following (in mM): 130 NaCl, 5 KCl, 10 HEPES, 2 CaCl2, and 10 mM glucose, pH7.4. Data were collected from 1-2 independent experiments performed at least in triplicate and processed with SigmaPlot (SPSS, Chicago, Ill.). For dose-response curve calculation, the peak fluorescence responses after compound addition were corrected for and normalized to background fluorescence (ΔF/F=(F−F0)/F0), and baseline noise was subtracted.
# (§2) All 25 human bitter taste receptors were challenged with 100 μM artemorin (FIG. 1) in a FLIPR calcium imaging experiment.
# TAS2R10 = target: T2, TAS2R10 (Homo sapiens, UniProt Q9NYW0, T156M); test: FLIPR calcium imaging, HEK-293T Gα16gust44 cells expressing TAS2R10; format: cell-based
# T2 construct: expressed in transfected cells; host or cells: HEK-293T cells stably expressing the chimeric G-protein subunit Gα16gust44
# T2 sequence (Q9NYW0 1-307 T156M): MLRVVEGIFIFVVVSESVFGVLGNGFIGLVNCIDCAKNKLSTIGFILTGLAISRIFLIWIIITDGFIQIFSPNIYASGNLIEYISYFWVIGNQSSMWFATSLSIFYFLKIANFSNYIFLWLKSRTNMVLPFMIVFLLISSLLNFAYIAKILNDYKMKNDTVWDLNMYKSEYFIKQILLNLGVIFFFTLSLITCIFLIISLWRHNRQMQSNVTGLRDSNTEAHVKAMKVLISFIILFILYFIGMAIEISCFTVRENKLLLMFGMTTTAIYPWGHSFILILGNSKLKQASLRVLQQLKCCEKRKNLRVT
# Experimental: as §1, §2
# TAS2R4 = target: T3, TAS2R4 (Homo sapiens, UniProt Q9NYW5); test: FLIPR calcium imaging, HEK-293T Gα16gust44 cells expressing TAS2R4; format: cell-based
# T3 construct: expressed in transfected cells; host or cells: HEK-293T cells stably expressing the chimeric G-protein subunit Gα16gust44
# T3 sequence (Q9NYW5 1-299): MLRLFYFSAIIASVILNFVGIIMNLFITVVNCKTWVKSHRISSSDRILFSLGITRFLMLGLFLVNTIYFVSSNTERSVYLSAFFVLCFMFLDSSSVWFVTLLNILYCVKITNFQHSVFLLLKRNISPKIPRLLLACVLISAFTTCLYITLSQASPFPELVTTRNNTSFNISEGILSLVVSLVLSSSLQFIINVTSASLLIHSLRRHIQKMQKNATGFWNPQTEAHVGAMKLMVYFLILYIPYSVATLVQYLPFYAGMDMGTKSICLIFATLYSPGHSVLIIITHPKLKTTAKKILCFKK
# Experimental: as §1, §2
# mock-transfected cells = conditions: 1 mM PROP
# Experimental: as §1, §2
# [1] = challenged with 100 μM artemorin, FIG. 2
smiles,measurement,setting,value
C=C1C(=O)O[C@@H]2[C@H]3C(C)=CC[C@@]34O[C@@]4(C)CC[C@@H]12 [Arglabin],molar range at which TAS2R14 responded to the bitter substance,TAS2R14,0.1 mM
same,molar range at which TAS2R10 responded to the bitter substance,"TAS2R10; calcium response, transfected HEK-293T Gα16gust44 cells, FLIPR",0.1 mM
"CCNC(=S)NCC [N,N′-Diethylthiourea]",molar range at which TAS2R14 responded to the bitter substance,TAS2R14,10 mM
C=C1CC[C@H]2C(=C)C(=O)O[C@@H]2/C=C(\C)CC[C@H]1O [artemorin],receptor response in FLIPR calcium imaging experiment (TAS2R14),TAS2R14; [1],responded to artemorin in a dose-dependent manner
same,receptor response in FLIPR calcium imaging experiment (TAS2R10),TAS2R10; [1],responded to artemorin in a dose-dependent manner
same,receptor response in FLIPR calcium imaging experiment (TAS2R4),TAS2R4; [1],responded to artemorin in a dose-dependent manner
CCCc1cc(=O)[nH]c(=S)[nH]1 [propylthiouracil],signals of mock-transfected cells,mock-transfected cells,elicits endogenous signals of mock-transfected cells
same,calcium responses in TAS2R4-expressing cells,TAS2R4; result in words,very small (somewhat questionable) and no dose-dependency can be shown
